One experiment has as its target T1, WEE1 (Homo sapiens, UniProt P30291).
T1 construct: purchased Thermo Fisher PR7373A
Put plainly: Selectivity versus WEE1 assay (ADP-Glo enzymatic assay). Format: biochemical. The conditions noted are these: for IC50: ADP-Glo; for PKMYT1 vs. WEE1 selectivity: fold difference in selectivity for PKMYT1 over WEE1. In outline:
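15 nM WEE1, 30 µM ATP, 50 mM HEPES pH 7.5, 10 mM MgCl2, 1 mM EGTA, 0.01% Brij-35, 1% DMSO; 60 min, 26° C; ADP-Glo luminescence; IC50 from curve fit, replicates within 3-fold, r2 >0.9.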

For experiment [1], the target named is T2, Cellular PKMYT1 Biomarker CDK1 pT14 (Homo sapiens, UniProt Q99640).
T2 construct: read-out CDK1 phospho-T14 immunoblot
T2 sequence (Q99640 1-499): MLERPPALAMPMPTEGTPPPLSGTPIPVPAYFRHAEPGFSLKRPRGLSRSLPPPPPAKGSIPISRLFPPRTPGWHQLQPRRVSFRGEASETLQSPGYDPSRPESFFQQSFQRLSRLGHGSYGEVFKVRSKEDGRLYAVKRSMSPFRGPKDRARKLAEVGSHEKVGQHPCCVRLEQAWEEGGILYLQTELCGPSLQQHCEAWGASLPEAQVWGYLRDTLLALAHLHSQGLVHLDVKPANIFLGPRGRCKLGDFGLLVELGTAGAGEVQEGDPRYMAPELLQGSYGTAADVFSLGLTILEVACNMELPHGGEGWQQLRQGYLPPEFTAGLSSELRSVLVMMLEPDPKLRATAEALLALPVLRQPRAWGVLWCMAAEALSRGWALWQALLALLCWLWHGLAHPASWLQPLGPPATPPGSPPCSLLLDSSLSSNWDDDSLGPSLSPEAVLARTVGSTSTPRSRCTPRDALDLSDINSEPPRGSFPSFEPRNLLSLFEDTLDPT
The experiment in a line: Inhibition of cellular PKMYT1 biomarker CDK1 pT14 in OVCAR 3 cells (immunoblot). The class given is cell-based. The conditions noted are these: 20 hours incubation. The protocol: To determine compound PKMYT1 IC50 in a cellular assay, OVCAR 3 cells were incubated at 37° C. in 5% CO2 atmosphere. The cells were maintained in RPMI medium supplemented with 20% foetal bovine serum, 1X non essential amino acids, 1 mM sodium pyruvate, Glutamax and insulin. Cells were seeded into 12-well plates at low density (50,000-200,000 cells per well), grown to confluence (~350-400,000 cells per well) and then treated with a range of concentrations of PKMYT1 inhibitors. The cells were incubated 20 hours and then harvested into 1X Laemmli Sample Buffer (BIORAD) without 2-mercaptoethanol, heated to 95° C. for 5 min, centrifuged and sonicated using a microprobe for 15 sec, 21W to shear the DNA.
The samples were analysed by immunoblot on a Jess Automated Western Blot System (BioTechne). The samples were separated using the 12-230 kDa Separation Module (BioTechne,) and blotted using an anti-CDK1 phospho T14 antibody (Abcam, #ab58509) and an anti-vinculin antibody (Abcam, #126002). Specific binding was detected by fluorescence using the Anti-Rabbit Detection Module (BioTechne, #DM-001), quantified using Compass for Simple Western software, and IC50 values were calculated by regression analysis in GraphPad Prism.

A further experiment has as its target T3, Human PKMYT1 (Homo sapiens, UniProt Q99640).
T3 construct: Human PKMYT1 75-362 was cloned as a TEV cleavable 6xHis fusion; 6xHis (TEV cleavable) (cleaved yes); made in house; host or cells: bacterial cells
T3 sequence (Q99640 75-362): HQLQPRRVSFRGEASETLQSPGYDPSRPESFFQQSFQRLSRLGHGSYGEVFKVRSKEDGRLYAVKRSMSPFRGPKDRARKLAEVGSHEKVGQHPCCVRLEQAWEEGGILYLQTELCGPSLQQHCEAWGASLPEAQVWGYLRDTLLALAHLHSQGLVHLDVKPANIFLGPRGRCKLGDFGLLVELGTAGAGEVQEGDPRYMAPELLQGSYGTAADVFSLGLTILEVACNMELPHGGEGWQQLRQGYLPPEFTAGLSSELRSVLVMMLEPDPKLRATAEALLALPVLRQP
The experiment in a line: PKMYT1 biochemical ADP-Glo enzymatic assay. The conditions noted are these: ADP-Glo. In outline:
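PKMYT1 75-362 (His-cleaved, bacterial) 15 nM; ATP 500 µM; HEPES pH 7.5, MgCl2, EGTA, Brij-35, 1% DMSO; 60 min, 26 °C; ADP-Glo Max luminescence; 10-pt 3-fold titration → IC50; replicates within 3-fold, r2 >0.9.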

Where [2] appears, read: PKMYT1 kinase domain 15 nM, banded values.

A value given as a limit tells only on which side of the number the result lay.

As usually defined, the IC50 is the concentration at which inhibition is half-maximal. A lower IC50 goes with greater potency in that assay.

T1 sequence (P30291 whole entry): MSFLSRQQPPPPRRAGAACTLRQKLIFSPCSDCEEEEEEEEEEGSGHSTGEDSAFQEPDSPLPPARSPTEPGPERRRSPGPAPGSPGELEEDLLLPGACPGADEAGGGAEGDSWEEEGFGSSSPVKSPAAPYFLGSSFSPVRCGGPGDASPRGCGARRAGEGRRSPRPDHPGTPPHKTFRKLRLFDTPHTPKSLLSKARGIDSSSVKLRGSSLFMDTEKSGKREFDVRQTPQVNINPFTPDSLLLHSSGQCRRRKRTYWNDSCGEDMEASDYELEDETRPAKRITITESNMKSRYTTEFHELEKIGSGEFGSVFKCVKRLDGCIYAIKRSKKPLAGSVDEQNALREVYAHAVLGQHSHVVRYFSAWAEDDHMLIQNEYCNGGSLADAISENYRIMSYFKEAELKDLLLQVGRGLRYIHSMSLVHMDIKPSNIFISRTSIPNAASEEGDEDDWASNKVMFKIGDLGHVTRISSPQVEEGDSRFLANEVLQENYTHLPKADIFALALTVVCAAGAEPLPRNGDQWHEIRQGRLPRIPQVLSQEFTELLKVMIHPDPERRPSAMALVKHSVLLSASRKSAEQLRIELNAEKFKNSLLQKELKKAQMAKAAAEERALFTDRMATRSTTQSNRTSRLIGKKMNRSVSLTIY

Regarding `Cc1cc(Nc2ncc(C(=O)Nc3c(C)ccc(O)c3C)s2)n(C2CCCC2)n1` [BAA-231, 2-((1-cyclopentyl-3-methyl-1H-pyrazol-5-yl)amino)-N-(3-hydroxy-2,6-dimethylphenyl)thiazole-5-carboxamide], the 50% inhibitory concentration (IC50) on WEE1 (15 nM WEE1, 60 minutes at 26° C., banded) is > 11000 nM; in experiment [1], 100 to 1000 nM; on Human PKMYT1 (15 nM PKMYT1 kinase domain, 500 µM ATP, 60 minutes at 26° C., banded) it was 50 to 1000 nM. Moreover, the “PKMYT1 vs. WEE1 selectivity” value at WEE1 (banded, ">N" = at least in this band but could be higher) was “Y (1000-5000 fold)”.
As for `Cc1ccc(O)c(C)c1NC(=O)c1cnc(Nc2cccc(F)n2)s1` [BAA-406, 2-((6-fluoropyridin-2-yl)amino)-N-(3-hydroxy-2,6-dimethylphenyl)thiazole-5-carboxamide], the IC50 was 1000 to 11000 nM at WEE1 (WEE1 15 nM, banded values); < 100 nM in experiment [1]; < 50 nM at Human PKMYT1 (setting [2]). Further, the “PKMYT1 vs. WEE1 selectivity” value at WEE1 (banded) is on record as “X (100-<1000 fold)”.
Consider `Cc1ccc(O)c(C)c1NC(=O)c1cnc(Nc2ncccc2F)s1` [BAA-411, 2-((3-fluoropyridin-2-yl)amino)-N-(3-hydroxy-2,6-dimethylphenyl)thiazole-5-carboxamide], for which the IC50 against WEE1 (WEE1 15 nM, banded values) was > 11000 nM; in experiment [1] it was 100 to 1000 nM; against Human PKMYT1 (setting [2]) it was < 50 nM. At WEE1 (banded), the “PKMYT1 vs. WEE1 selectivity” value was “Y (1000-5000 fold)”.
For `Cc1ccc(O)c(C)c1NC(=O)c1cnc(Nc2ncccc2C2CC2)s1` [BAA-412, 2-((3-cyclopropylpyridin-2-yl)amino)-N-(3-hydroxy-2,6-dimethylphenyl)thiazole-5-carboxamide], in that order: > 11000 nM, 100 to 1000 nM, < 50 nM and “Z (>5000 fold)”.
As for `Cc1ccc(O)c(C)c1NC(=O)c1cnc(Nc2ncc(F)cc2F)s1` [BAA-413, 2-((3,5-difluoropyridin-2-yl)amino)-N-(3-hydroxy-2,6-dimethylphenyl)thiazole-5-carboxamide], the IC50 is > 11000 nM at WEE1 (WEE1 15 nM, banded values); 100 to 1000 nM in experiment [1]; < 50 nM at Human PKMYT1 (setting [2]). Also, the “PKMYT1 vs. WEE1 selectivity” value at WEE1 (banded) is “Z (>5000 fold)”.
Consider `Cc1cccnc1Nc1ncc(C(=O)Nc2c(C)ccc(O)c2C)s1` [BAA-415, N-(3-hydroxy-2,6-dimethylphenyl)-2-((3-methylpyridin-2-yl)amino)thiazole-5-carboxamide], for which the IC50 against WEE1 (WEE1 15 nM, banded values) was > 11000 nM; in experiment [1] it was < 100 nM; on Human PKMYT1 (setting [2]), < 50 nM. For the same compound, the “PKMYT1 vs. WEE1 selectivity” value on WEE1 (banded) is reported as “X (100-<1000 fold)”.
On to `Cc1ccc(O)c(C)c1NC(=O)c1cnc(Nc2nn(C)c3ccc(C(F)(F)F)cc23)s1` [BAA-454, N-(3-hydroxy-2,6-dimethylphenyl)-2-((1-methyl-5-(trifluoromethyl)-1H-indazol-3-yl)amino)thiazole-5-carboxamide], for which the IC50 against WEE1 (WEE1 15 nM, banded values) is > 11000 nM; in experiment [1], < 100 nM; at Human PKMYT1 (setting [2]), 50 to 1000 nM. The “PKMYT1 vs. WEE1 selectivity” value at WEE1 (banded) is given as “X (100-<1000 fold)”.
For the compound `Cc1cn(CC(F)F)nc1Nc1nnc(C(=O)Nc2c(C)ccc(O)c2C)s1` [BAA-464, 5-((1-(2,2-Difluoroethyl)-4-methyl-1H-pyrazol-3-yl)amino)-N-(3-hydroxy-2,6-dimethylphenyl)-1,3,4-thiadiazole-2-carboxamide], the half-maximal inhibitory concentration (IC50) at WEE1 (WEE1 15 nM, banded values) was > 11000 nM; in experiment [1] it was 100 to 1000 nM; at Human PKMYT1 (setting [2]) it was < 50 nM. At WEE1 (banded), the “PKMYT1 vs. WEE1 selectivity” value is “Y (1000-5000 fold)”.
Consider `Cc1cn(CC#N)nc1Nc1ncc(C(=O)Nc2c(C)ccc(O)c2C)s1` [BAA-467, 2-((1-(cyanomethyl)-4-methyl-1H-pyrazol-3-yl)amino)-N-(3-hydroxy-2,6-dimethylphenyl)thiazole-5-carboxamide], for which the IC50 against WEE1 (WEE1 15 nM, banded values) was 50 to 1000 nM; in experiment [1], < 100 nM; on Human PKMYT1 (setting [2]) it was < 50 nM. Also, at WEE1 (banded), the “PKMYT1 vs. WEE1 selectivity” value is given as “W (10-<100 fold)”.
As to `Cn1cc(Br)c(Nc2ncc(C(=O)Nc3c(Cl)ccc(O)c3F)s2)n1` [BAA-471, 2-((4-Bromo-1-methyl-1H-pyrazol-3-yl)amino)-N-(6-chloro-2-fluoro-3-hydroxyphenyl)thiazole-5-carboxamide], the IC50 at WEE1 (WEE1 15 nM, banded values) was > 11000 nM; in experiment [1], 100 to 1000 nM; against Human PKMYT1 (setting [2]) it was 50 to 1000 nM. Also, the “PKMYT1 vs. WEE1 selectivity” value at WEE1 (banded) is reported as “X (100-<1000 fold)”.
For the compound `Cc1ccc(O)c(C)c1NC(=O)c1cnc(Nc2nn(C)cc2Br)s1` [BAA-473, 2-((4-bromo-1-methyl-1H-pyrazol-3-yl)amino)-N-(3-hydroxy-2,6-dimethylphenyl)thiazole-5-carboxamide], the IC50 is 1000 to 11000 nM on WEE1 (WEE1 15 nM, banded values); 100 to 1000 nM in experiment [1]; < 50 nM on Human PKMYT1 (setting [2]). Besides, on WEE1 (banded), the “PKMYT1 vs. WEE1 selectivity” value is “X (100-<1000 fold)”.
With `Cc1cn(CC(=O)N(C)CCC#N)nc1Nc1ncc(C(=O)Nc2c(C)ccc(O)c2C)s1` [BAA-523, 2-((1-(2-((2-cyanoethyl)(methyl)amino)-2-oxo-ethyl)-4-methyl-1H-pyrazol-3-yl)amino)-N-(3-hydroxy-2,6-dimethylphenyl)thiazole-5-carboxamide], the IC50 was 1000 to 11000 nM at WEE1 (WEE1 15 nM, banded values); 100 to 1000 nM in experiment [1]; < 50 nM at Human PKMYT1 (setting [2]). Moreover, at WEE1 (banded), the “PKMYT1 vs. WEE1 selectivity” value is given as “X (100-<1000 fold)”.
The corresponding values for `COCCN(C)C(=O)Cn1cc(C)c(Nc2ncc(C(=O)Nc3c(C)ccc(O)c3C)s2)n1` [BAA-549, N-(3-Hydroxy-2,6-dimethylphenyl)-2-((1-(2-((2-methoxyethyl)(methyl)amino)-2-oxoethyl)-4-methyl-1H-pyrazol-3-yl)amino)thiazole-5-carboxamide] are > 11000 nM, < 100 nM, < 50 nM and “X (100-<1000 fold)”.
For `Cc1cn(CC(=O)N2CCCC2)nc1Nc1ncc(C(=O)Nc2c(C)cc(Cl)c(O)c2C)s1` [BAA-553, N-(4-chloro-3-hydroxy-2,6-dimethylphenyl)-2-((4-methyl-1-(2-oxo-2-(pyrrolidin-1-yl)ethyl)-1H-pyrazol-3-yl)amino) thiazole-5-carboxamide], in that order: > 11000 nM, 100 to 1000 nM, 50 to 1000 nM and “X (100-<1000 fold)”.
For the compound `CCN(CC)C(=O)C(CO)n1cc(C)c(Nc2ncc(C(=O)Nc3c(C)ccc(O)c3C)s2)n1` (stereo not shown) [BAA-576, 2-((1-(1-(diethylamino)-3-hydroxy-1-oxopropan-2-yl)-4-methyl-1H-pyrazol-3-yl)amino)-N-(3-hydroxy-2,6-dimethylphenyl)thiazole-5-carboxamide], the half-inhibitory concentration (IC50) at WEE1 (WEE1 15 nM, banded values) was 1000 to 11000 nM; in experiment [1], < 100 nM; on Human PKMYT1 (setting [2]), < 50 nM. On WEE1 (banded), the “PKMYT1 vs. WEE1 selectivity” value is given as “X (100-<1000 fold)”.
For `COCC(C(=O)N1CCCC1)n1cc(C)c(Nc2ncc(C(=O)Nc3c(C)ccc(O)c3C)s2)n1` (stereo not shown) [BAA-577, N-(3-Hydroxy-2.6-dimethylphenyl)-2-((1-(3-methoxy-1-oxo-1-(pyrrolidin-1-yl)propan-2-yl)-4-methyl-1H-pyrazol-3-yl)amino)thiazole-5-carboxamide], the IC50 against WEE1 (WEE1 15 nM, banded values) is > 11000 nM; in experiment [1] it was < 100 nM; at Human PKMYT1 (setting [2]), < 50 nM. The “PKMYT1 vs. WEE1 selectivity” value on WEE1 (banded) is listed as “X (100-<1000 fold)”.

For the origin of these results see patent US20260297042A1, “BIARYLAMIDE DERIVATIVES AND THEIR USE AS PKMYT1 INHIBITORS” (CANCER RESEARCH TECHNOLOGY LIMITED, priority 2023, published 2026).
